The source of these data is US11827628B2, “Compositions and methods for inhibition of the JAK pathway” (Rigel Pharmaceuticals, Inc., priority 2005, dated 2023).

pIC50: −log10 of the molar value.

For test [1], the system named is up-regulation of ICAM-1 (CD54) by IFNγ in U937 human monocytic cells. As to the kind of experiment: U937 IFNγ ICAM1 FACS Assay. It is filed as cell-based. Conditions: U937 cells stimulated with IFNγ; ICAM-1 expression by FACS; read-out: IC50, Example 44. In short, it runs like this: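 Readout was the geometric-mean APC anti-ICAM-1 signal by FACS on live U937 monocytic cells, with % live cells also recorded. Cells were exposed to compounds (8 points, 3-fold dilutions, duplicates) for 30 min at 37 °C before 18–24 h of IFNγ stimulation. EC50 values were computed from the dose curve.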

The subject of test [2] is IL-4 stimulated expression of CD23 in human Ramos B cells (JAK-1 and JAK-3). In words: Assay for Ramos B-Cell Line Stimulated with IL-4 (CD23 upregulation, FACS). In kind it is cell-based. Conditions: Ramos B-cell line stimulated with IL-4; CD23 expression by FACS; read-out: IC50, Example 41. In short, it runs like this:
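Steps: Ramos B cells are suspended in RPMI with 5% serum, exposed to compound for 1 h at 37 °C, stimulated with IL-4 (final 50 units/mL) for 20-24 h, stained for CD23 and analysed by flow cytometry. IC50 is calculated.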

As to “5-Fluoro-N4-[4-(3-methyl-1,2,4-oxadiazol-3-yl)methyleneoxyphenyl]-N2-[(3-N-propanamido)sulfonylphenyl)]-2,4-pyrimidinediamine [Compound I-262]”, the values for the pIC50 in test [1] and in test [2] were 5.98 and 7.11, respectively.

For the molecule `Cc1ccc(Nc2ncc(F)c(Nc3cccc(OC4CCCN(C)C4)c3)n2)cc1S(N)(=O)=O` (racemic) [II-1, Racemic N2-(3-aminosulfonyl-4-methylphenyl)-5-fluoro-N4-{3-[(1-methylpiperidin-3-yl)oxy]phenyl}-2,4-pyrimidinediamine], the pIC50 in test [1] is 5.08; in test [2], 6.74.

For `Cc1ccc(Nc2ncc(F)c(Nc3ccc(OC4CCCN(C)C4)c(Cl)c3)n2)cc1S(N)(=O)=O` (racemic) [II-3, Racemic N2-(3-aminosulfonyl-4-methylphenyl)-N4-{3-chloro-4-[(1-methylpiperidin-3-yl)oxy]phenyl}-5-fluoro-2,4-pyrimidinediamine], the negative-log IC50 (pIC50) was 5.19 in test [1] and 7.08 in test [2].

Take `Cc1ccc(Nc2ncc(F)c(Nc3ccc(OC4CCCN(C)C4)cc3)n2)cc1S(N)(=O)=O` (racemic) [II-4, Racemic N2-(3-aminosulfonyl-4-methylphenyl)-5-fluoro-N4-{4-[(1-methylpiperidin-3-yl)oxy]phenyl}-2,4-pyrimidinediamine]: the pIC50 in test [1] was 5.45; in test [2], 6.50.

Regarding `N#CCOc1ccc(Nc2nc(Nc3cccc(S(N)(=O)=O)c3)ncc2F)cc1` [Compound I-17, N2-(3-Aminosulfonyl)phenyl-N4-(4-cyanomethoxy)phenyl-5-fluoro-2,4-pyrimidinediamine], the pIC50 in test [1] was 6.44; in test [2], 7.31.

Take `CN1CCN(S(=O)(=O)c2cccc(Nc3ncc(F)c(Nc4ccc(OCC#N)cc4)n3)c2)CC1` [Compound I-19, N4-(4-Cyanomethoxy)phenyl-5-fluoro-N2-[3-(4-methylpiperazin-1-yl)sulfonyl]phenyl-2,4-pyrimidinediamine]: the pIC50 in test [1] was 5.00; in test [2], 6.29.

For the molecule `Cc1ccc(Nc2ncc(F)c(Nc3ccc(OCC#N)cc3)n2)cc1S(N)(=O)=O` [Compound I-20, N2-(3-Aminosulfonyl-4-methyl)phenyl-N4-(4-cyanomethoxy)phenyl-5-fluoro-2,4-pyrimidinediamine], the pIC50 in test [1] is 6.47; in test [2], 7.44.

As to `N#CCOc1ccc(Nc2nc(Nc3ccc(Cl)c(S(N)(=O)=O)c3)ncc2F)cc1` [Compound I-21, N2-(3-Aminosulfonyl-4-chlorophenyl)-N4-(4-cyanomethoxy)phenyl-5-fluoro-2,4-pyrimidinediamine], the results for the pIC50 in test [1] and in test [2] were 6.08 and 7.03, respectively.

In the case of `Cc1cc(Nc2nc(Nc3ccc(S(N)(=O)=O)cc3)ncc2F)ccc1OCC#N` [Compound I-22, N2-(4-Aminosulfonyl)phenyl-N4-(4-cyanomethoxy-3-methyl)phenyl-5-fluoro-2,4-pyrimidinediamine], the pIC50 was 5.35 in test [1] and 6.63 in test [2].

For the molecule `Cc1cc(Nc2nc(Nc3cccc(S(N)(=O)=O)c3)ncc2F)ccc1OCC#N` [Compound I-23, N2-(3-Aminosulfonyl)phenyl-N4-(4-cyanomethoxy-3-methyl)phenyl-5-fluoro-2,4-pyrimidinediamine], the pIC50 is 6.34 in test [1] and 7.52 in test [2].

In the case of `Cc1cc(Nc2nc(Nc3ccc(C)c(S(N)(=O)=O)c3)ncc2F)ccc1OCC#N` [Compound I-24, N2-(3-Aminosulfonyl-4-methyl)phenyl-N4-(4-cyanomethoxy-3-methyl)phenyl-5-fluoro-2,4-pyrimidinediamine], the negative logarithm of the IC50 (pIC50) in test [1] is 5.98; in test [2], 7.27.

With `Cc1cc(Nc2nc(Nc3ccc(S(N)(=O)=O)cc3)ncc2F)cc(C)c1OCC#N` [Compound I-25, N2-(4-Aminosulfonyl)phenyl-N4-(4-cyanomethoxy-3,5-dimethyl)phenyl-5-fluoro-2,4-pyrimidinediamine], the pIC50 in test [2] is 7.25.

Turning to `Cc1cc(Nc2nc(Nc3cccc(S(N)(=O)=O)c3)ncc2F)cc(C)c1OCC#N` [Compound I-26, N2-(3-Aminosulfonyl)phenyl-N4-(4-cyanomethoxy-3,5-dimethyl)phenyl-5-fluoro-2,4-pyrimidinediamine], the pIC50 in test [1] is 6.37; in test [2], 7.42.

For the molecule `Cc1ccc(Nc2ncc(F)c(Nc3cc(C)c(OCC#N)c(C)c3)n2)cc1S(N)(=O)=O` [Compound I-27, N2-(3-Aminosulfonyl-4-methyl)phenyl-N4-(4-cyanomethoxy-3,5-dimethyl)phenyl-5-fluoro-2,4-pyrimidinediamine], the pIC50 is 6.27 in test [1] and 7.21 in test [2].

As for `COc1cc(Nc2ncc(F)c(Nc3ccc(OCC#N)cc3)n2)ccc1S(N)(=O)=O` [Compound I-28, N2-(4-Aminosulfonyl-3-methoxyphenyl)-N4-(4-cyanomethoxy)phenyl-5-fluoro-2,4-pyrimidinediamine], the results for the pIC50 in test [1] and in test [2] were 5.72 and 7.19, respectively.

On to `COc1cc(Nc2ncc(F)c(Nc3cc(C)c(OCC#N)c(C)c3)n2)ccc1S(N)(=O)=O` [Compound I-32, N2-(4-Aminosulfonyl-3-methoxy)phenyl-N4-(4-cyanomethoxy-3,5-dimethyl)phenyl-5-fluoro-2,4-pyrimidinediamine], for which the pIC50 in test [1] is 5.71; in test [2] it was 6.79.

Turning to `N#CCOc1ccc(Nc2nc(Nc3ccc(F)c(S(N)(=O)=O)c3)ncc2F)cc1` [Compound I-33, N2-(3-Aminosulfonyl-4-fluoro)phenyl-N4-(4-cyanomethoxy)phenyl-5-fluoro-2,4-pyrimidinediamine], the pIC50 in test [1] is 6.05; in test [2], 7.02.

Consider `Cc1cc(COc2ccc(Nc3nc(Nc4cc(Cl)c(C)c(S(N)(=O)=O)c4)ncc3F)cc2C)no1` [Compound I-216, N2-(3-Aminosulfonyl-5-chloro-4-methylphenyl)-5-fluoro-N4-[3-methyl-4-(5-methylisoxazol-3-yl)methyleneoxyphenyl]-2,4-pyrimidinediamine], for which the negative logarithm of the IC50 (pIC50) in test [1] was 5.80; in test [2], 6.69.

`Cc1cc(COc2ccc(Nc3nc(Nc4cc(C)c(F)c(S(N)(=O)=O)c4)ncc3F)cc2)no1` [Compound I-217, N2-(3-Aminosulfonyl-4-fluoro-5-methylphenyl)-5-fluoro-N4-[4-(5-methylisoxazol-3-yl)methyleneoxyphenyl]-2,4-pyrimidinediamine]: the pIC50 was 6.32 in test [1] and 7.60 in test [2].

As for `Cc1cc(COc2ccc(Nc3nc(Nc4cc(C)c(Cl)c(S(N)(=O)=O)c4)ncc3F)cc2)no1` [Compound I-218, N2-(3-Aminosulfonyl-4-chloro-5-methylphenyl)-5-fluoro-N4-[4-(5-methylisoxazol-3-yl)methyleneoxyphenyl]-2,4-pyrimidinediamine], the figures for the negative logarithm of the IC50 (pIC50) in test [1] and in test [2] were 6.36 and 7.14, respectively.

Take `Cc1cc(COc2ccc(Nc3nc(Nc4ccc(C)c(S(N)(=O)=O)c4)ncc3F)cc2)no1` [Compound I-219, N2-(3-Aminosulfonyl-4-methylphenyl)-5-fluoro-N4-[4-(5-methylisoxazol-3-yl)methyleneoxyphenyl]-2,4-pyrimidinediamine]: the pIC50 is 6.23 in test [1] and 7.50 in test [2].
